Data on 19 molecules can be found in US12600726B2, “Antagonists of the muscarinic acetylcholine receptor M4” (Vanderbilt University, priority 2017, dated 2026).

The target in one experiment is T1, Human M4 (Homo sapiens, UniProt P08173).
T1 construct: expressed in transfected cells; host or cells: CHO-K1 (ATCC), stably expressing M4 and Gqi5
T1 sequence (P08173 1-479): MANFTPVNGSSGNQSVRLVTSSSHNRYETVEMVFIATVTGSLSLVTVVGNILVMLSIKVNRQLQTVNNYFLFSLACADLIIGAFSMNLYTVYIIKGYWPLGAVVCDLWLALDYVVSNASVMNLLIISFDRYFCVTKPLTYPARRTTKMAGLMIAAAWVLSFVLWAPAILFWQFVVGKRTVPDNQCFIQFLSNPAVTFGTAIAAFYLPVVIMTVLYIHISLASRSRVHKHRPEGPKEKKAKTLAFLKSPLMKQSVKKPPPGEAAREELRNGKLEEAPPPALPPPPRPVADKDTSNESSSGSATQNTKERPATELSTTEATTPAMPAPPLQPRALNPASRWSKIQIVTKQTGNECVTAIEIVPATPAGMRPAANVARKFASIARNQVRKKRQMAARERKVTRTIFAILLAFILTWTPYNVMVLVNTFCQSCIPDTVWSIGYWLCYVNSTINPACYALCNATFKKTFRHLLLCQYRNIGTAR
The experiment is described as follows: mAChR M4 cell-based functional calcium flux assay (human M4/Gqi5/CHO cells). Conditions: for Emin (human M4): % ACh maximum at 30 μM; for pIC50: decrease of the response to an EC80 concentration of acetylcholine. The gist of the method:
(§1)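 CHO-K1 cells stably co-expressing M4 of the given species with chimeric Gqi5 were loaded with Fluo-4 AM and read for calcium flux. Compounds (10-point, 1:3 dilutions) were added first, followed by an acetylcholine EC20 at 143 s and an EC80 at 268 s. IC50 reflects the concentration-dependent fall in the EC80 response, fitted with a four-parameter logistic.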
In general terms: A change in cytosolic calcium serves as a functional read-out for many receptors and channels.

Another experiment deals with T2, Rat M4 (Rattus norvegicus, UniProt P08485).
T2 construct: expressed in transfected cells; host or cells: CHO-K1 (ATCC), stably expressing M4 and Gqi5
T2 sequence (P08485 1-478): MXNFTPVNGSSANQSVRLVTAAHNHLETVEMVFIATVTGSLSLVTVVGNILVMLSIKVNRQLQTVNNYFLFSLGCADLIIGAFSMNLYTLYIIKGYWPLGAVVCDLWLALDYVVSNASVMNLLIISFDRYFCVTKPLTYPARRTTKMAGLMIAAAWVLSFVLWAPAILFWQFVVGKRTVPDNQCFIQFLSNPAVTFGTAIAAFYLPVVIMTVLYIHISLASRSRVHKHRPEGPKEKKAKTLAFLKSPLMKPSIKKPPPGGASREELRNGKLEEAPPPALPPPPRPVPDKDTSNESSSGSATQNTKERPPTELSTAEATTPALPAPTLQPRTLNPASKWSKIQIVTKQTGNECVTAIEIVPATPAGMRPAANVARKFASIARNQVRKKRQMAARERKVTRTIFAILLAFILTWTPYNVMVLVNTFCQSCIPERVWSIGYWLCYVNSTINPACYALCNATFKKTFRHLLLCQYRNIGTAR
The experiment is described as follows: mAChR M4 cell-based functional calcium flux assay (rat M4/Gqi5/CHO cells). The following applies: for Emin (rat M4): % ACh maximum at 30 μM; for pIC50: decrease of the response to an EC80 concentration of acetylcholine. A digest of the protocol:
as §1

Each structure is given as a SMILES string. pIC50: −log10 of the molar value.

One may read the pIC50 as −log10 of the IC50, conventionally taken in molar units. Regarding `Fc1ccc(Cl)c(-c2ccc(NCC3CC34CCN(CC3CC5C=CC3C5)CC4)nc2)c1` (stereo not shown) [Compound 68, N-[[6-(5-bicyclo[2.2.1]hept-2-enylmethyl)-6-azaspiro[2.5]octan-2-yl]methyl]-5-(2-chloro-5-fluoro-phenyl)pyridin-2-amine], at Human M4, the “Emin (human M4)” value came to 4.04% and the negative logarithm of the IC50 (pIC50) is 6.31. Moreover, at Rat M4, the “Emin (rat M4)” value was found to be 4.48% and the pIC50 is 5.82.
With `CC(C)(C)CCN1CCC2(CC1)CC2CNc1ccc(-c2cc(F)ccc2Cl)cn1` (stereo not shown) [Compound 69, 5-(2-chloro-5-fluoro-phenyl)-N-[[6-(3,3-dimethylbutyl)-6-azaspiro[2.5]octan-2-yl]methyl]pyridin-2-amine], at Human M4, the “Emin (human M4)” value was determined as 4.09% and the pIC50 is 6.13. Also, on Rat M4, the “Emin (rat M4)” value came to 4.18% and the pIC50 is 5.74.
On to `Cc1nn(C)cc1-c1ccc(NCC2CC23CCN(CC2CC4C=CC2C4)CC3)nc1` (stereo not shown) [Compound 70, N-[[6-(5-bicyclo[2.2.1]hept-2-enylmethyl)-6-azaspiro[2.5]octan-2-yl]methyl]-5-(1,3-dimethylpyrazol-4-yl)pyridin-2-amine], for which, on Human M4, the “Emin (human M4)” value came out at 3.29% and the negative logarithm of the IC50 (pIC50) is 7.34. Further, on Rat M4, the “Emin (rat M4)” value is 3.96% and the negative logarithm of the IC50 (pIC50) was 6.77.
Consider `C1=CC2CC1CC2CN1CCC2(CC1)CC2CNc1ncc(-c2ccccc2)s1` (stereo not shown) [Compound 71, N-[[6-(5-bicyclo[2.2.1]hept-2-enylmethyl)-6-azaspiro[2.5]octan-2-yl]methyl]-5-phenyl-thiazol-2-amine], for which, at Human M4, the “Emin (human M4)” value is 4.74% and the pIC50 is 5.90. At Rat M4, the “Emin (rat M4)” value is reported as 4.72% and the pIC50 was 6.08.
Turning to `CC(C)(C)CCN1CCC2(CC1)CC2CNc1ncc(-c2ccccc2)s1` (stereo not shown) [Compound 72, N-[[6-(3,3-dimethylbutyl)-6-azaspiro[2.5]octan-2-yl]methyl]-5-phenyl-thiazol-2-amine], on Human M4, the “Emin (human M4)” value is reported as 4.42% and the pIC50 was 5.90. Also, at Rat M4, the “Emin (rat M4)” value was 4.86% and the negative-log IC50 (pIC50) is 6.11.
Consider `c1ccc(-c2cnc(NCC3CC34CCN(CC3CCOCC3)CC4)s2)cc1` (stereo not shown) [Compound 73, 5-phenyl-N-[[6-(tetrahydropyran-4-ylmethyl)-6-azaspiro[2.5]octan-2-yl]methyl]thiazol-2-amine], for which, on Human M4, the “Emin (human M4)” value worked out at 8.96% and the negative-log IC50 (pIC50) was 5.18. Also, on Rat M4, the “Emin (rat M4)” value came to 9.84% and the pIC50 was 5.51.
Take `CC(C)(C)CCN1CCC2(CC1)CC2CNc1ccc(N2CCC(F)(F)C2)nn1` (stereo not shown) [Compound 75, 6-(3,3-difluoropyrrolidin-1-yl)-N-((6-(3,3-dimethylbutyl)-6-azaspiro[2.5]octan-1-yl)methyl)pyridazin-3-amine]: on Human M4, the “Emin (human M4)” value came to 4% and the pIC50 was 7.39. On Rat M4, the “Emin (rat M4)” value stood at 5% and the pIC50 is 6.94.
For `Cc1cnn(C)c1-c1ccc(N(C)CC2CC23CCN(CCC(C)(C)C)CC3)nn1` (stereo not shown) [Compound 76, 6-(1,4-dimethyl-1H-pyrazol-5-yl)-N-((6-(3,3-dimethylbutyl)-6-azaspiro[2.5]octan-1-yl)methyl)-N-methylpyridazin-3-amine] the same measures were 4%, 7.00, 7% and 6.16.
`CC(C)(C)CCN1CCC2(CC1)CC2CNc1ccc(N2CCOCC2)nn1` (stereo not shown) [Compound 79, N-[[6-(3,3-dimethylbutyl)-6-azaspiro[2.5]octan-2-yl]methyl]-6-morpholino-pyridazin-3-amine]: on Human M4, the “Emin (human M4)” value is 5% and the negative-log IC50 (pIC50) was 8.30. Besides, on Rat M4, the “Emin (rat M4)” value is 5% and the pIC50 is 7.86.
`CC(C)(C)CCN1CCC2(CC1)CC2CNc1ccc(N2CCC(F)(F)CC2)nn1` (stereo not shown) [Compound 80, 6-(4,4-difluoro-1-piperidyl)-N-[[6-(3,3-dimethylbutyl)-6-azaspiro[2.5]octan-2-yl]methyl]pyridazin-3-amine]: on Human M4, the “Emin (human M4)” value was 3% and the negative logarithm of the IC50 (pIC50) is 7.40. On Rat M4, the “Emin (rat M4)” value was 3% and the pIC50 is 7.03.
Take `CC(C)(C)CCN1CCC2(CC1)CC2CNc1ccc(N2CCCC2)nn1` (stereo not shown) [Compound 81, N-[[6-(3,3-dimethylbutyl)-6-azaspiro[2.5]octan-2-yl]methyl]-6-pyrrolidin-1-yl-pyridazin-3-amine]: on Human M4, the “Emin (human M4)” value is listed as 4% and the pIC50 was 7.07. Also, at Rat M4, the “Emin (rat M4)” value worked out at 4% and the pIC50 was 6.51.
`C1=CC2CC1CC2CN1CCC2(CC1)CC2CNc1ccc(N2CCOCC2)nn1` (stereo not shown) [Compound 82, N-[[6-(5-bicyclo[2.2.1]hept-2-enylmethyl)-6-azaspiro[2.5]octan-2-yl]methyl]-6-morpholino-pyridazin-3-amine]: at Human M4, the “Emin (human M4)” value is given as 3% and the negative logarithm of the IC50 (pIC50) is 8.30. Moreover, on Rat M4, the “Emin (rat M4)” value turned out to be 6% and the pIC50 was 7.32.
For `c1cc(N2CCOCC2)nnc1NCC1CC12CCN(CC1CCCCC1)CC2` (stereo not shown) [Compound 83, N-[[6-(cyclohexylmethyl)-6-azaspiro[2.5]octan-2-yl]methyl]-6-morpholino-pyridazin-3-amine] the same measures were 6%, 7.47, 7% and 6.44.
Regarding `c1cc(N2CCOCC2)nnc1NCC1CC12CCN(CC13CC4CC(CC(C4)C1)C3)CC2` (stereo not shown) [Compound 84, N-[[6-(1-adamantylmethyl)-6-azaspiro[2.5]octan-2-yl]methyl]-6-morpholino-pyridazin-3-amine], on Human M4, the “Emin (human M4)” value came out at 5% and the pIC50 was 7.47. In addition, at Rat M4, the “Emin (rat M4)” value is reported as 3% and the negative logarithm of the IC50 (pIC50) was 6.59.
Taken in the same sequence, the figures for `Cc1nn(C)cc1-c1nnc(NCC2CC23CCN(Cc2ccccc2)CC3)c2ccccc12` (stereo not shown) [Compound 88, N-[(6-benzyl-6-azaspiro[2.5]octan-2-yl)methyl]-4-(1,3-dimethylpyrazol-4-yl)phthalazin-1-amine] were 5%, 6.58, 6% and 5.90.
For `Cc1nn(C)cc1-c1nnc(NCC2CC23CCN(CC24CC5CC(CC(C5)C2)C4)CC3)c2ccccc12` (stereo not shown) [Compound 89, N-[[6-(1-adamantylmethyl)-6-azaspiro[2.5]octan-2-yl]methyl]-4-(1,3-dimethylpyrazol-4-yl)phthalazin-1-amine], at Human M4, the “Emin (human M4)” value is 3% and the negative logarithm of the IC50 (pIC50) was 6.77. Besides, at Rat M4, the “Emin (rat M4)” value was 4% and the pIC50 was 6.46.
With `Fc1ccc(Cl)c(-c2ccc(NC[C@@H]3CC34CCN(CC3CCOCC3)CC4)nn2)c1` [Compound 107, (R)-6-(2-chloro-5-fluoro-phenyl)-N-[[6-(tetrahydropyran-4-ylmethyl)-6-azaspiro[2.5]octan-2-yl]methyl]pyridazin-3-amine], on Human M4, the “Emin (human M4)” value is listed as 4% and the pIC50 is 8.74. Further, on Rat M4, the “Emin (rat M4)” value was determined as 6% and the pIC50 is 7.89.
For `Fc1ccc(Cl)c(-c2ccc(NC[C@@H]3CC34CCN(CC3CC5C=CC3C5)CC4)nn2)c1` (stereo partly drawn) [Compound 108, N-(((1R)-6-(bicyclo[2.2.1]hept-5-en-2-ylmethyl)-6-azaspiro[2.5]octan-1-yl)methyl)-6-(2-chloro-5-fluorophenyl)pyridazin-3-amine] the same measures were 2%, 8.00, 3% and 7.32.
For `Fc1ccc(Cl)c(-c2ccc(NC[C@@H]3CC34CCN(CC3CCCCCC3)CC4)nn2)c1` [Compound 109, (R)-6-(2-chloro-5-fluorophenyl)-N-((6-(cycloheptylmethyl)-6-azaspiro[2.5]octan-1-yl)methyl)pyridazin-3-amine] the same measures were 4%, 7.30, 3% and 7.04.
